Measurements reported in ChEMBL document CHEMBL1137802, “Specific antioxidant activity of caffeoyl derivatives and other natural phenolic compounds: LDL protection against oxidation and decrease in the proinflammatory lysophosphatidylcholine production” (J Nat Prod, 2001).

Columns and labels:
Type in all cases: functional, cell-free
[1] = Antioxidant activity against Cu2+-induced lipid peroxidation in human plasma LDL preincubated for 1 hr before Cu2+ challenge
[2] = Antioxidant activity against Cu2+-induced lipid peroxidation in human plasma LDL assessed as conjugated diene formation at 5 umol/L preincubated for 1 hr before Cu2+ challenge measured after 90 mins
[3] = Antioxidant activity against Cu2+-induced lipid peroxidation in human plasma LDL assessed as conjugated diene formation at 5 umol/L preincubated for 1 hr before Cu2+ challenge measured after 120 mins
[4] = Antioxidant activity against Cu2+-induced lipid peroxidation in human plasma LDL assessed as conjugated diene formation at 5 umol/L preincubated for 1 hr before Cu2+ challenge measured after 180 mins
[5] = Antioxidant activity against Cu2+-induced lipid peroxidation in human plasma LDL assessed as lysophosphatidylcholine formation at 10 umol/L preincubated for 1 hr before Cu2+ challenge measured after 270 mins
[6] = Antioxidant activity against Cu2+-induced lipid peroxidation in human plasma LDL assessed as lysophosphatidylcholine formation at 10 umol/L preincubated for 1 hr before Cu2+ challenge measured after 360 mins
[7] = Antioxidant activity against Cu2+-induced lipid peroxidation in human plasma LDL assessed as vitamin E consumption at 10 umol/L preincubated for 1 hr before Cu2+ challenge measured after 30 mins
[8] = Antioxidant activity against Cu2+-induced lipid peroxidation in human plasma LDL assessed as vitamin E consumption at 10 umol/L preincubated for 1 hr before Cu2+ challenge measured after 180 mins
[9] = Antioxidant activity against Cu2+-induced lipid peroxidation in human plasma LDL assessed as maximal compound concentration at 10 umol/L preincubated for 1 hr before Cu2+ challenge measured after 45 mins relative to compound present at 0 min
[10] = Antioxidant activity against Cu2+-induced lipid peroxidation in human plasma LDL assessed as conjugated diene formation at 20 umol/L preincubated for 1 hr before Cu2+ challenge measured after 60 mins
[11] = Antioxidant activity against Cu2+-induced lipid peroxidation in human plasma LDL assessed as conjugated diene formation at 20 umol/L preincubated for 1 hr before Cu2+ challenge measured after 120 mins
[12] = Antioxidant activity against Cu2+-induced lipid peroxidation in human plasma LDL assessed as conjugated diene formation at 20 umol/L preincubated for 1 hr before Cu2+ challenge measured after 210 mins
[13] = Antioxidant activity against Cu2+-induced lipid peroxidation in human plasma LDL assessed as lysophosphatidylcholine formation at 20 umol/L preincubated for 1 hr before Cu2+ challenge measured after 120 mins
[14] = Antioxidant activity against Cu2+-induced lipid peroxidation in human plasma LDL assessed as lysophosphatidylcholine formation at 20 umol/L preincubated for 1 hr before Cu2+ challenge measured after 180 mins
[15] = Antioxidant activity against Cu2+-induced lipid peroxidation in human plasma LDL assessed as vitamin E consumption at 20 umol/L preincubated for 1 hr before Cu2+ challenge measured after 120 mins
[16] = Antioxidant activity against Cu2+-induced lipid peroxidation in human plasma LDL assessed as vitamin E consumption at 20 umol/L preincubated for 1 hr before Cu2+ challenge measured after 150 mins
[17] = Antioxidant activity against Cu2+-induced lipid peroxidation in human plasma LDL assessed as vitamin E consumption at 20 umol/L preincubated for 1 hr before Cu2+ challenge measured after 180 mins
[18] = Antioxidant activity against Cu2+-induced lipid peroxidation in human plasma LDL assessed as vitamin E consumption at 20 umol/L preincubated for 1 hr before Cu2+ challenge measured after 210 mins
[19] = Antioxidant activity against Cu2+-induced lipid peroxidation in human plasma LDL assessed as vitamin E consumption at 20 umol/L preincubated for 1 hr before Cu2+ challenge measured after 270 mins
[20] = Antioxidant activity against Cu2+-induced lipid peroxidation in human plasma LDL assessed as maximal compound concentration at 20 umol/L preincubated for 1 hr before Cu2+ challenge measured after 30 mins relative to compound present at 0 min
[21] = Antioxidant activity against Cu2+-induced lipid peroxidation in human plasma LDL assessed as lysophosphatidylcholine formation preincubated for 1 hr before Cu2+ challenge
[22] = Antioxidant activity against Cu2+-induced lipid peroxidation in human plasma LDL assessed as lysophosphatidylcholine formation at 5 umol/L preincubated for 1 hr before Cu2+ challenge measured after 150 mins
[23] = Antioxidant activity against Cu2+-induced lipid peroxidation in human plasma LDL assessed as lysophosphatidylcholine formation at 5 umol/L preincubated for 1 hr before Cu2+ challenge measured after 180 mins
[24] = Antioxidant activity against Cu2+-induced lipid peroxidation in human plasma LDL assessed as lysophosphatidylcholine formation at 5 umol/L preincubated for 1 hr before Cu2+ challenge measured after 210 mins
[25] = Antioxidant activity against Cu2+-induced lipid peroxidation in human plasma LDL assessed as vitamin E consumption at 5 umol/L preincubated for 1 hr before Cu2+ challenge measured after 90 mins
[26] = Antioxidant activity against Cu2+-induced lipid peroxidation in human plasma LDL assessed as vitamin E consumption at 5 umol/L preincubated for 1 hr before Cu2+ challenge measured after 150 mins
[27] = Antioxidant activity against Cu2+-induced lipid peroxidation in human plasma LDL assessed as maximal compound concentration at 5 umol/L preincubated for 1 hr before Cu2+ challenge measured after 15 mins relative to compound present at 0 min
[28] = Antioxidant activity against Cu2+-induced lipid peroxidation in human plasma LDL assessed as maximal compound concentration at 5 umol/L preincubated for 1 hr before Cu2+ challenge measured after 120 mins relative to compound present at 0 min
[29] = Antioxidant activity against Cu2+-induced lipid peroxidation in human plasma LDL assessed as maximal compound concentration at 5 umol/L preincubated for 1 hr before Cu2+ challenge measured after 210 mins relative to compound present at 0 min
[30] = Antioxidant activity against Cu2+-induced lipid peroxidation in human plasma LDL assessed as conjugated diene formation at 10 umol/L preincubated for 1 hr before Cu2+ challenge measured after 210 mins
[31] = Antioxidant activity against Cu2+-induced lipid peroxidation in human plasma LDL assessed as conjugated diene formation at 10 umol/L preincubated for 1 hr before Cu2+ challenge measured after 360 mins
[32] = Antioxidant activity against Cu2+-induced lipid peroxidation in human plasma LDL assessed as lysophosphatidylcholine formation at 10 umol/L preincubated for 1 hr before Cu2+ challenge measured after 60 mins
[33] = Antioxidant activity against Cu2+-induced lipid peroxidation in human plasma LDL assessed as lysophosphatidylcholine formation at 10 umol/L preincubated for 1 hr before Cu2+ challenge measured after 90 mins
[34] = Antioxidant activity against Cu2+-induced lipid peroxidation in human plasma LDL assessed as lysophosphatidylcholine formation at 10 umol/L preincubated for 1 hr before Cu2+ challenge measured after 120 mins
[35] = Antioxidant activity against Cu2+-induced lipid peroxidation in human plasma LDL assessed as lysophosphatidylcholine formation at 10 umol/L preincubated for 1 hr before Cu2+ challenge measured after 150 mins

Structure (SMILES): CC(C)(Sc1cc(C(C)(C)C)c(O)c(C(C)(C)C)c1)Sc1cc(C(C)(C)C)c(O)c(C(C)(C)C)c1
- Activity [1]: 5.8 µM/L
- Activity [2]: 37.9%
- Activity [3]: 78.6%
- Activity [4]: 79.5%
- Activity [5]: 12.9%
- Activity [6]: 19.2%
- Activity [7]: 17.8%
- Activity [8]: 0%
- Activity [9]: 73%
- Activity [10]: 1.3%
- Activity [11]: 0.2%
- Activity [12]: 2.6%
- Activity [13]: 1%
- Activity [14]: 1.5%
- Activity [15]: 0%
- Activity [16]: 0%
- Activity [17]: 0%
- Activity [18]: 0%
- Activity [19]: 0%
- Activity [20]: 91.8%
- Activity [21]: Dose-dependent effect
- Activity [22]: 17.5%
- Activity [23]: 19.4%
- Activity [24]: 23.1%
- Activity [25]: 0%
- Activity [26]: 0%
- Activity [27]: 96%
- Activity [28]: 56.5%
- Activity [29]: 36.8%
- Activity [30]: 76.3%
- Activity [31]: 100%
- Activity [32]: 0.7%
- Activity [33]: 0%
- Activity [34]: 1.3%
- Activity [35]: 3%
